Results published in the supplement of paper PMC10307832.

What was measured:
Test in all cases: relative viability (nuclei count vs DMSO), 5 days (fraction); higher = more cells survive
Wnt-C59 + Foretinib = compound: CC1=NC=CC(=C1)C2=CC=C(C=C2)CC(=O)NC3=CC=C(C=C3)C4=CN=CC=C4 [Wnt-C59] + COc1cc2c(Oc3ccc(NC(=O)C4(C(=O)Nc5ccc(F)cc5)CC4)cc3F)ccnc2cc1OCCCN1CCOCC1 [Foretinib] (partner 0.25 µM)
How it was run: (§1)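 Relative viability was taken as the ratio of nuclei in treated wells to nuclei in vehicle wells. Lung cancer cell lines in 1536-well plates received compounds by pin tool one day after seeding, either one drug alone or a fixed anchor-drug dose plus five library-drug doses (not always all listed) in √10 steps. Nuclei were counted on 4× images after 5 days of treatment, and values are medians of duplicate plates.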

Wnt-C59 + Vorinostat = compound: CC1=NC=CC(=C1)C2=CC=C(C=C2)CC(=O)NC3=CC=C(C=C3)C4=CN=CC=C4 [Wnt-C59] + O=C(CCCCCCC(=O)Nc1ccccc1)NO [Vorinostat] (partner 1 µM)
How it was run: as §1

Lapatinib + Alpelisib = compound: CS(=O)(=O)CCNCc1ccc(-c2ccc3ncnc(Nc4ccc(OCc5cccc(F)c5)c(Cl)c4)c3c2)o1 [Lapatinib] + Cc1nc(NC(=O)N2CCC[C@H]2C(N)=O)sc1-c1ccnc(C(C)(C)C(F)(F)F)c1 [Alpelisib] (partner 2 µM)
How it was run: as §1

Wnt-C59 + Crizotinib = compound: CC1=NC=CC(=C1)C2=CC=C(C=C2)CC(=O)NC3=CC=C(C=C3)C4=CN=CC=C4 [Wnt-C59] + C[C@@H](Oc1cc(-c2cnn(C3CCNCC3)c2)cnc1N)c1c(Cl)ccc(F)c1Cl [Crizotinib] (partner 1 µM)
How it was run: as §1

Cell Line | relative viability (Wnt-C59 + Foretinib; first compound 0.001 µM) | relative viability (Wnt-C59 + Foretinib; first compound 0.01 µM) | relative viability (Wnt-C59 + Foretinib; first compound 0.03162 µM) | relative viability (Wnt-C59 + Foretinib; first compound 0.1 µM) | relative viability (Wnt-C59 + Vorinostat; first compound 0.001 µM) | relative viability (Wnt-C59 + Vorinostat; first compound 0.01 µM) | relative viability (Wnt-C59 + Vorinostat; first compound 0.03162 µM) | relative viability (Wnt-C59 + Vorinostat; first compound 0.1 µM) | relative viability (Lapatinib + Alpelisib; first compound 0.2 µM) | relative viability (Lapatinib + Alpelisib; first compound 0.6325 µM) | relative viability (Lapatinib + Alpelisib; first compound 2 µM) | relative viability (Wnt-C59 + Crizotinib; first compound 0.001 µM) | relative viability (Wnt-C59 + Crizotinib; first compound 0.01 µM) | relative viability (Wnt-C59 + Crizotinib; first compound 0.03162 µM) | relative viability (Wnt-C59 + Crizotinib; first compound 0.1 µM) | relative viability (Lapatinib + Alpelisib; first compound 0.02 µM) | relative viability (Lapatinib + Alpelisib; first compound 0.06325 µM)
NCI-H23 | 0.952 | 0.97 | 0.967 | 1.02 | 0.499 | 0.541 | 0.737 | 0.59 | 0.737 | 0.719 | 0.521 | 0.521 | 0.463 | 0.537 | 0.599 | – | –
NCI-H322M | 0.879 | 0.802 | 0.896 | 0.68 | 0.86 | 0.816 | 0.746 | 0.93 | 0.808 | 0.73 | 0.773 | 0.819 | 0.937 | 0.877 | 0.841 | 0.776 | 0.669
NCI-H358 | 0.759 | 0.648 | 1.04 | 0.678 | 0.803 | 0.589 | 0.8 | 0.65 | 0.574 | 0.414 | 0.336 | 0.608 | 0.525 | 0.436 | 0.625 | 0.741 | –
NCI-H522 | – | – | – | – | 0.899 | 0.954 | 0.759 | 0.873 | – | – | – | – | – | – | – | – | –
NCI-H1299 | 1.15 | 1.06 | 1.05 | 1.11 | – | – | – | – | 1.11 | 1.03 | 1.04 | 1.02 | 0.562 | 0.952 | 0.953 | 1.06 | 1.08
NCI-H1395 | 0.99 | 1.01 | 0.984 | 1 | 0.724 | 0.675 | 0.564 | 1.1 | 1.18 | 0.978 | 1.03 | – | – | – | – | – | 0.93
NCI-H1563 | 0.911 | 0.931 | 0.926 | 0.898 | – | – | – | – | 0.795 | 0.961 | 0.898 | 0.812 | 0.802 | 0.965 | 0.797 | 0.951 | 0.848
NCI-H1623 | 0.886 | 0.732 | 0.989 | 0.893 | – | – | – | – | – | – | – | – | – | – | – | – | –
NCI-H1648 | – | – | – | – | 0.421 | 0.369 | 0.655 | 0.364 | – | – | – | – | – | – | – | – | –
NCI-H1650 | 1.26 | 1.2 | 1.31 | 1.08 | 0.69 | 0.638 | 0.606 | 0.516 | – | – | – | 1.08 | 1.02 | 0.896 | 0.89 | – | –
NCI-H1703 | 0.346 | 0.279 | 0.355 | 0.348 | – | – | – | – | 0.325 | 0.398 | 0.343 | 0.988 | 0.735 | 0.585 | 0.64 | 0.289 | 0.33
NCI-H1792 | – | – | – | – | – | – | – | – | 0.75 | 0.666 | 0.576 | 0.914 | 1.02 | 1.04 | 1.06 | 0.723 | 0.633
NCI-H1793 | 0.69 | – | 0.678 | 0.614 | 0.626 | 0.548 | 0.81 | 0.74 | – | 0.563 | 0.384 | – | – | – | – | – | –
NCI-H2342 | 1.06 | 1.16 | 1.18 | 1.07 | 0.706 | 0.747 | 0.855 | 0.732 | – | – | – | – | – | – | – | – | –
SW 900 | 1.14 | 0.667 | 1.18 | 1.01 | 0.475 | 0.343 | 0.479 | 0.488 | – | – | – | – | – | – | – | – | –
